Test system: bone marrow cells (megakaryocyte colony formation)
Experiment: Megakaryocyte colony formation-stimulating activity (ACHE-stained colonies, bone marrow cells with IL-3)
Format: cell-based, BALB/c mouse
Conditions: with IL-3 100 U/ml, 7 days
Protocol: An eight-weeks-old BALB/c mouse was killed. Its femurs and cervical vertebrae were taken out, and both end sections thereof were cut off. Bone marrow cells were collected from the pieces cut off from the femurs and cervical vertebrae using a syringe containing IMDM (430-2200EA prepared by Gibco Co.), and then blown into a test tube. The test tube was allowed to stand for 5 minutes, and the supernatant was collected with a pipet. To a reaction mixture comprising the bone marrow cells (50,000 cells), bovine serum albumin (2%: A4508 made by Sigma Co.), transferrin (600 μg/ml 652202 made by Boehringer Mannheim Co.), IL-3 (100 U/ml), cholesterol (16 μg/ml: 036-0641 made by Wako Co.) and agar (0.6%: 0142-02 made by Difco Laboratories) were separately added the test compounds at various concentrations, and 1 ml each of the mixtures was put into a 35-mm dish (Lux Co.), followed by incubation under the conditions of 37° C., 5% CO2 and a humidity of 95% or more for 7 days. Separately, IL-3 alone was added to the bone marrow cells to prepare a control, whereas a positive control was prepared by adding 200 U/ml IL-6 to the above-mentioned reaction mixture. After the incubation was completed, the agar was dried over a filter paper (1001-055 made by Whatman Co.) and then fixed with 2.5% glutaraldehyde, followed by acetylcholinesterase staining (ACHE staining).
The ACHE staining was carried out by the method described below.
ACHE staining: To each sample was added a solution comprising 0.67 mg/ml acetylthiocholine iodide, 2.94 mg/ml sodium citrate, 7.5 mg/ml copper (II) sulfate and 1.65 mg/ml potassium ferricyanide, and the mixture was allowed to stand at room temperature in the dark for 4-6 hours.
A group of 4 or more megakaryocytes which were stained reddish brown was regarded as a colony, and the number of colonies per dish was calculated using a microscope. The results are shown in Table 2 as relative values to the control.

CC12OC(CC1O)n1c3ccccc3c3c4c(c5c6ccccc6n2c5c31)CNC4=O (centres unmarked) [Compound I-46]
Relative value (megakaryocyte colonies, control = 100) (0.1 nM): 97 | Relative value (megakaryocyte colonies, control = 100) (1 nM): 131 | Relative value (megakaryocyte colonies, control = 100) (10 nM): 112

CNC1CC2OC(C)(C1OC)n1c3ccccc3c3c4c(c5c6ccccc6n2c5c31)C(=O)N(C)C4 (centres unmarked) [Compound I-2]
Relative value (megakaryocyte colonies, control = 100) (0.01 nM): 125 | Relative value (megakaryocyte colonies, control = 100) (1 nM, 10080 min, 0.001 µM): 168

CCCOC(=O)C1(O)CC2OC1(C)n1c3ccccc3c3c4c(c5c6ccccc6n2c5c31)C(=O)NC4 (centres unmarked) [Compound I-42]
Relative value (megakaryocyte colonies, control = 100) (0.1 nM): 91 | Relative value (megakaryocyte colonies, control = 100) (1 nM): 107 | Relative value (megakaryocyte colonies, control = 100) (10 nM): 122

CCCCOC(=O)C1(O)CC2OC1(C)n1c3ccccc3c3c4c(c5c6ccccc6n2c5c31)C(=O)NC4 (centres unmarked) [Compound I-15]
Relative value (megakaryocyte colonies, control = 100) (0.1 nM): 120 | Relative value (megakaryocyte colonies, control = 100) (1 nM): 121 | Relative value (megakaryocyte colonies, control = 100) (10 nM): 132

CCSC1NC(=O)c2c1c1c3ccccc3n3c1c1c2c2ccccc2n1C1CC(O)(C(=O)OC)C3(C)O1 (centres unmarked) [Compound I-14]
Relative value (megakaryocyte colonies, control = 100) (0.1 nM): 118 | Relative value (megakaryocyte colonies, control = 100) (1 nM): 115 | Relative value (megakaryocyte colonies, control = 100) (10 nM): 116

CNC1CC2OC(C)(C1OC)n1c3ccccc3c3c4c(c5c6ccccc6n2c5c31)C(=O)N(C)C4O (single isomer, unassigned) [Compound I-23a]
Relative value (megakaryocyte colonies, control = 100) (0.1 nM): 114

COC(=O)C1(OC)CC2OC1(C)n1c3ccccc3c3c4c(c5c6ccccc6n2c5c31)C(=O)N(C)C4 (centres unmarked) [Compound I-7]
Relative value (megakaryocyte colonies, control = 100) (0.01 nM): 93 | Relative value (megakaryocyte colonies, control = 100) (1 nM): 101 | Relative value (megakaryocyte colonies, control = 100) (100 nM): 108

COC(=O)C1(O)CC2OC1(C)n1c3ccccc3c3c4c(c5c6ccccc6n2c5c31)C(=O)N(Cc1ccccc1)C4=O (centres unmarked) [Compound I-13]
Relative value (megakaryocyte colonies, control = 100) (0.1 nM): 100 | Relative value (megakaryocyte colonies, control = 100) (1 nM): 113 | Relative value (megakaryocyte colonies, control = 100) (10 nM): 125

CC(C)OC(=O)C1(O)CC2OC1(C)n1c3ccccc3c3c4c(c5c6ccccc6n2c5c31)C(=O)NC4 (centres unmarked) [Compound I-45]
Relative value (megakaryocyte colonies, control = 100) (0.1 nM): 103 | Relative value (megakaryocyte colonies, control = 100) (1 nM): 143 | Relative value (megakaryocyte colonies, control = 100) (10 nM): 100

CNC1CC2OC(C)(C1OC)n1c3ccccc3c3c4c(c5c6cc(Br)ccc6n2c5c31)C(=O)NC4 (centres unmarked) [Compound I-29]
Relative value (megakaryocyte colonies, control = 100) (0.1 nM): 90 | Relative value (megakaryocyte colonies, control = 100) (1 nM): 113 | Relative value (megakaryocyte colonies, control = 100) (10 nM): 112

CNC1CC2OC(C)(C1OC)n1c3ccccc3c3c4c(c5c6ccccc6n2c5c31)C(=O)N(Cc1ccccc1)C4 (centres unmarked) [Compound I-21]
Relative value (megakaryocyte colonies, control = 100) (0.1 nM): 95 | Relative value (megakaryocyte colonies, control = 100) (1 nM): 105 | Relative value (megakaryocyte colonies, control = 100) (10 nM): 97

CCCN(C)C1CC2OC(C)(C1OC)n1c3ccccc3c3c4c(c5c6ccccc6n2c5c31)C(=O)N(C)C4 (centres unmarked) [Compound I-24]
Relative value (megakaryocyte colonies, control = 100) (0.1 nM): 88 | Relative value (megakaryocyte colonies, control = 100) (1 nM): 87 | Relative value (megakaryocyte colonies, control = 100) (10 nM): 109

COCOC1(C(=O)OC)CC2OC1(C)n1c3ccccc3c3c4c(c5c6ccccc6n2c5c31)C(=O)NC4 (centres unmarked) [Compound I-39]
Relative value (megakaryocyte colonies, control = 100) (0.1 nM): 123 | Relative value (megakaryocyte colonies, control = 100) (1 nM): 109 | Relative value (megakaryocyte colonies, control = 100) (10 nM): 92

CNC1CC2OC(C)(C1OC)n1c3ccccc3c3c4c(c5c6cc(C=O)ccc6n2c5c31)C(=O)N(C)C4 (centres unmarked) [Compound I-50]
Relative value (megakaryocyte colonies, control = 100) (1 nM): 118 | Relative value (megakaryocyte colonies, control = 100) (10 nM): 128

CCCOc1ccc2c(c1)c1c3c(c4c5cc(OCCC)ccc5n5c4c1n2C1CC(O)(C(=O)OC)C5(C)O1)CNC3=O (centres unmarked) [Compound I-12]
Relative value (megakaryocyte colonies, control = 100) (0.1 nM): 133 | Relative value (megakaryocyte colonies, control = 100) (1 nM): 113 | Relative value (megakaryocyte colonies, control = 100) (10 nM): 122

CCCN1Cc2c(c3c4ccccc4n4c3c3c2c2ccccc2n3C2(C)OC4CC(NC)C2OC)C1=O (centres unmarked) [Compound I-19]
Relative value (megakaryocyte colonies, control = 100) (0.1 nM): 118 | Relative value (megakaryocyte colonies, control = 100) (1 nM): 94 | Relative value (megakaryocyte colonies, control = 100) (10 nM): 156

CCCCCCOC(=O)C1(O)CC2OC1(C)n1c3ccccc3c3c4c(c5c6ccccc6n2c5c31)C(=O)NC4 (centres unmarked) [Compound I-5]
Relative value (megakaryocyte colonies, control = 100) (0.01 nM): 112 | Relative value (megakaryocyte colonies, control = 100) (1 nM): 104 | Relative value (megakaryocyte colonies, control = 100) (100 nM): 103

O=C1NCc2c1c1c3ccccc3[nH]c1c1[nH]c3ccccc3c21 [Compound I-16]
Relative value (megakaryocyte colonies, control = 100) (0.1 nM): 118 | Relative value (megakaryocyte colonies, control = 100) (1 nM): 88.3 | Relative value (megakaryocyte colonies, control = 100) (10 nM): 100

COC1C(N(C)C(C)=O)CC2OC1(C)n1c3ccccc3c3c4c(c5c6ccccc6n2c5c31)C(=O)NC4 (centres unmarked) [Compound I-28]
Relative value (megakaryocyte colonies, control = 100) (0.1 nM): 89 | Relative value (megakaryocyte colonies, control = 100) (1 nM): 101 | Relative value (megakaryocyte colonies, control = 100) (10 nM): 95

CNC1CC2OC(C)(C1OC)n1c3ccccc3c3c4c(c5c6ccccc6n2c5c31)C(=O)N(N)C4=O (centres unmarked) [Compound I-3]
Relative value (megakaryocyte colonies, control = 100) (0.01 nM): 98.8 | Relative value (megakaryocyte colonies, control = 100) (1 nM): 127

COC1C(N(C)C)CC2OC1(C)n1c3ccccc3c3c4c(c5c6ccccc6n2c5c31)C(=O)N(C)C4 (centres unmarked) [Compound I-49]
Relative value (megakaryocyte colonies, control = 100) (0.1 nM): 122 | Relative value (megakaryocyte colonies, control = 100) (1 nM): 128

CNC1CC2OC(C)(C1OC)n1c3ccccc3c3c4c(c5c6ccccc6n2c5c31)C(=O)N(C)C4=O (centres unmarked) [Compound I-9]
Relative value (megakaryocyte colonies, control = 100) (0.1 nM): 135 | Relative value (megakaryocyte colonies, control = 100) (1 nM): 117 | Relative value (megakaryocyte colonies, control = 100) (10 nM): 92.2

CNC1CC2OC(C)(C1OC)n1c3ccccc3c3c4c(c5c6ccccc6n2c5c31)C(=O)N(C)C4 (centres unmarked) [Compound I-22]
Relative value (megakaryocyte colonies, control = 100) (0.1 nM): 116 | Relative value (megakaryocyte colonies, control = 100) (1 nM, 10080 min, 0.001 µM): 120 | Relative value (megakaryocyte colonies, control = 100) (10 nM): 100

COC1C(N(C)C(=O)OCc2ccccc2)CC2OC1(C)n1c3ccccc3c3c4c(c5c6ccccc6n2c5c31)C(=O)N(C)C4 (centres unmarked) [Compound I-18]
Relative value (megakaryocyte colonies, control = 100) (0.1 nM): 118 | Relative value (megakaryocyte colonies, control = 100) (1 nM): 88 | Relative value (megakaryocyte colonies, control = 100) (10 nM): 84

CCCN1C(=O)c2c(c3c4ccccc4n4c3c3c2c2ccccc2n3C2CC(O)(C(=O)OC)C4(C)O2)C1=O (centres unmarked) [Compound I-44]
Relative value (megakaryocyte colonies, control = 100) (0.1 nM): 126 | Relative value (megakaryocyte colonies, control = 100) (1 nM): 70 | Relative value (megakaryocyte colonies, control = 100) (10 nM): 118

COC(=O)C1(O)CC2OC1(C)n1c3ccccc3c3c4c(c5c6cc(S(=O)(=O)N7CCN(C)CC7)ccc6n2c5c31)C(=O)NC4 (centres unmarked) [Compound I-11]
Relative value (megakaryocyte colonies, control = 100) (0.1 nM): 88.4 | Relative value (megakaryocyte colonies, control = 100) (1 nM): 95 | Relative value (megakaryocyte colonies, control = 100) (10 nM): 116

CCCCCCN1Cc2c(c3c4ccccc4n4c3c3c2c2ccccc2n3C2(C)OC4CC(NC)C2OC)C1=O (centres unmarked) [Compound I-20]
Relative value (megakaryocyte colonies, control = 100) (0.1 nM): 107 | Relative value (megakaryocyte colonies, control = 100) (1 nM): 131 | Relative value (megakaryocyte colonies, control = 100) (10 nM): 144

COC(=O)C1(O)CC2OC1(C)n1c3ccccc3c3c4c(c5c6ccccc6n2c5c31)C(=O)NC4O (centres unmarked) [Compound I-4]
Relative value (megakaryocyte colonies, control = 100) (0.01 nM): 94.3 | Relative value (megakaryocyte colonies, control = 100) (1 nM): 115

CCCCCCN(C)C1CC2OC(C)(C1OC)n1c3ccccc3c3c4c(c5c6ccccc6n2c5c31)C(=O)NC4 (centres unmarked) [Compound I-27]
Relative value (megakaryocyte colonies, control = 100) (0.1 nM): 76 | Relative value (megakaryocyte colonies, control = 100) (1 nM): 109 | Relative value (megakaryocyte colonies, control = 100) (10 nM): 97

— patent US5674867A, “Indolocarbazole derivatives and therapeutic method for stimulating megakaicyocyte production” (Kyowa Hakko Kogyo Co., Ltd., priority 1992, dated 1997)
